Each structure is given as a SMILES string.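 Each compound was tested at five concentrations against cells in 96-well plates for 48 hours. Here, GI50 denotes the concentration required for 50% inhibition of growth.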 Calls of active or inactive are those of the source. Rule as the data show it: active = GI50 up to about 1.1 µM and inactive = higher. A value given as a limit tells only on which side of the number the result lay.

Some test systems named below: HOP-18; DMS-273; LXFL 529; RXF 631; DLD-1; SNB-78; DMS-114; KM-20L2; XF498.
Common to all, as to assay: DTP human tumour cell line panel, 48 h

With `Clc1ccc(C(c2ccccc2Cl)C(Cl)Cl)cc1` (stereo not drawn) [MITOTANE], the GI50 – broadly, the concentration at which growth is held to half of that of the control – is 12.5 µM (inactive) in the assay on HOP-18; 18.5 µM (inactive) in the assay with DMS-273; 20.9 µM (inactive) in the assay on LXFL 529; 17.9 µM (inactive) with RXF 631; 19.5 µM (inactive) in the assay on DLD-1; 20.7 µM (inactive) in the assay with SNB-78. Further, the GI50 in the assay with DMS-114 was 18.5 µM (inactive); in the assay on KM-20L2 it was 16.9 µM (inactive); in the assay with XF498, 15.7 µM (inactive).

For `Cc1cn2cc(-c3ccncc3)nc2s1`, the GI50 in the assay with HOP-18, in the assay on DMS-273, in the assay on LXFL 529, in the assay with RXF 631, in the assay with DLD-1 and in the assay on SNB-78 was > 100 µM (inactive) each time. The GI50 in the assay on DMS-114 was > 91.4 µM (inactive); in the assay on KM-20L2, > 100 µM (inactive); in the assay on XF498, > 100 µM (inactive).

As for `COC(=O)CC1(O)C(=O)OCc2c1cc1n(c2=O)Cc2c-1nc1ccccc1c2OC` (stereo not drawn), the GI50 was 0.522 µM (active) in the assay on HOP-18; 0.042 µM (active) in the assay with DMS-273; 23.2 µM (inactive) in the assay on LXFL 529; 1.63 µM (inactive) in the assay on RXF 631; 27.4 µM (inactive) in the assay with DLD-1; 26 µM (inactive) in the assay on SNB-78. Moreover, the 50% growth inhibitory concentration (GI50) was 0.164 µM (active) with DMS-114, 1.95 µM (inactive) in the assay with KM-20L2 and 13.3 µM (inactive) in the assay with XF498.

Turning to `c1ccc(P(=Nc2ccccc2N=P(c2ccccc2)(c2ccccc2)c2ccccc2)(c2ccccc2)c2ccccc2)cc1`, the GI50 in the assay with HOP-18 was 0.172 µM (active); in the assay on DMS-273, 0.309 µM (active); in the assay on LXFL 529, 0.337 µM (active); with RXF 631, 1.34 µM (inactive); in the assay with DLD-1 it was 1.47 µM (inactive); in the assay with SNB-78 it was 0.489 µM (active). Besides, the results for the 50% growth inhibitory concentration (GI50) in the assay on DMS-114, in the assay with KM-20L2 and in the assay on XF498 were 0.405 µM (active), 1.38 µM (inactive) and 0.208 µM (active), respectively.

`COc1ccc2nc3cc(Cl)ccc3c(Nc3ccccc3-c3ccccc3Nc3c4ccc(Cl)cc4nc4ccc(OC)cc34)c2c1`: the GI50 in the assay with HOP-18 is > 100 µM (inactive); in the assay with DMS-273 it was 20.4 µM (inactive); with LXFL 529, 17.1 µM (inactive); with RXF 631 it was > 34.8 µM (inactive); in the assay with SNB-78, > 100 µM (inactive); with KM-20L2, 19.9 µM (inactive). Moreover, the GI50 with XF498 is > 39.4 µM (inactive).

For the compound `Cc1c(C(=O)/C=C/c2ccccc2[N+](=O)[O-])[n+]([O-])c2ccccc2[n+]1[O-]`, the GI50 with HOP-18 was 15.4 µM (inactive); in the assay on DMS-273 it was 3.61 µM (inactive); in the assay with LXFL 529, 4.89 µM (inactive); with RXF 631, 4.34 µM (inactive); in the assay with DLD-1, 3.53 µM (inactive); in the assay on SNB-78 it was 12.3 µM (inactive). The GI50 in the assay on DMS-114 was 5.55 µM (inactive); with KM-20L2, 5.61 µM (inactive).

Consider `Nc1nc[n+](Cc2ccccc2CCO)c2[nH]cnc12`, for which the GI50 with HOP-18, in the assay on DMS-273, in the assay with LXFL 529, in the assay with RXF 631, with DMS-114 and in the assay with KM-20L2 was > 100 µM (inactive) in each case. Further, in the assay with XF498, the GI50 is > 100 µM (inactive).

The values above are taken from ChEMBL document CHEMBL1201862, “PubChem BioAssay data set” (2004).
